Experimental data from patent US12077503B2, “Substituted cyclic amides and their use as herbicides” (FMC CORPORATION, priority 2015, dated 2024).

Legend:
Assay in all cases: Test C preemergence
Type in all cases: in vivo
[1] = test system: oilseed rape (Brassica napus); settings: for Plant response rating, Oilseed Rape: scale 0 to 100, 0 no effect, 100 complete control
Summary of the method: (§1)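 After treatment with surfactant-containing formulations, either preemergence to seeds in loam-sand soil or postemergence to potted seedlings at 2–18 cm, plants were kept 13–15 d in a greenhouse. Observers then compared them with controls and assigned ratings, 0 signifying no effect and 100 complete control.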

[2] = test system: ryegrass, Italian (Italian ryegrass, Lolium multiflorum); settings: for Plant response rating, Ryegrass, Italian: scale 0 to 100, 0 no effect, 100 complete control
Summary of the method: as §1

[3] = test system: Galium (catchweed bedstraw, Galium aparine); settings: for Plant response rating, Galium: scale 0 to 100, 0 no effect, 100 complete control
Summary of the method: as §1

[4] = test system: wheat (winter wheat, Triticum aestivum); settings: for Plant response rating, Wheat: scale 0 to 100, 0 no effect, 100 complete control
Summary of the method: as §1

[5] = test system: barnyardgrass (Echinochloa crus-galli); settings: for Plant response rating, Barnyardgrass: scale 0 to 100, 0 no effect, 100 complete control
Summary of the method: as §1

[6] = test system: velvetleaf (Abutilon theophrasti); settings: for Plant response rating, Velvetleaf: scale 0 to 100, 0 no effect, 100 complete control
Summary of the method: as §1

[7] = test system: nutsedge, yellow (yellow nutsedge, Cyperus esculentus); settings: for Plant response rating, Nutsedge, Yellow: scale 0 to 100, 0 no effect, 100 complete control
Summary of the method: as §1

[8] = test system: crabgrass, large (large crabgrass, Digitaria sanguinalis); settings: for Plant response rating, Crabgrass, Large: scale 0 to 100, 0 no effect, 100 complete control
Summary of the method: as §1

[9] = test system: blackgrass (Alopecurus myosuroides); settings: for Plant response rating, Blackgrass: scale 0 to 100, 0 no effect, 100 complete control
Summary of the method: as §1

[10] = test system: johnsongrass (Sorghum halepense); settings: for Plant response rating, Johnsongrass: scale 0 to 100, 0 no effect, 100 complete control
Summary of the method: as §1

[11] = test system: foxtail, giant (giant foxtail, Setaria faberii); settings: for Plant response rating, Foxtail, Giant: scale 0 to 100, 0 no effect, 100 complete control
Summary of the method: as §1

[12] = test system: ragweed (common ragweed, Ambrosia elatior); settings: for Plant response rating, Ragweed: scale 0 to 100, 0 no effect, 100 complete control
Summary of the method: as §1

[13] = test system: morningglory (Ipomoea coccinea); settings: for Plant response rating, Morningglory: scale 0 to 100, 0 no effect, 100 complete control
Summary of the method: as §1

[14] = test system: lambsquarters (Chenopodium album); settings: for Plant response rating, Lambsquarters: scale 0 to 100, 0 no effect, 100 complete control
Summary of the method: as §1

[15] = test system: pigweed (Amaranthus retroflexus); settings: for Plant response rating, Pigweed: scale 0 to 100, 0 no effect, 100 complete control
Summary of the method: as §1

corn (Zea mays) = settings: for Plant response rating, Corn: scale 0 to 100, 0 no effect, 100 complete control
Summary of the method: as §1

soybean (Glycine max) = settings: for Plant response rating, Soybean: scale 0 to 100, 0 no effect, 100 complete control
Summary of the method: as §1

[16] = 31 g ai/ha, 0 is no effect, 100 is complete control

CN1CC(c2ccc(F)c(F)c2)C(C(=O)Nc2ccccc2C(F)(F)F)C1=O (centres unmarked) [Compound 641]
Plant response rating (scale of 0 to 100), Oilseed Rape [1, 16]: 80 | Plant response rating, Oilseed Rape ([1]; 62 g ai/ha): 85 | Plant response rating, Oilseed Rape ([1]; 125 g ai/ha): 85 | Plant response rating, Oilseed Rape ([1]; 250 g ai/ha): 90 | Plant response rating (scale of 0 to 100), Ryegrass, Italian [2, 16]: 0 | Plant response rating, Ryegrass, Italian ([2]; 62 g ai/ha): 10 | Plant response rating, Ryegrass, Italian ([2]; 125 g ai/ha): 35 | Plant response rating, Ryegrass, Italian ([2]; 250 g ai/ha): 70 | Plant response rating (scale of 0 to 100), Galium [3, 16]: 0 | Plant response rating, Galium ([3]; 62 g ai/ha): 30 | Plant response rating, Galium ([3]; 125 g ai/ha): 90 | Plant response rating, Galium ([3]; 250 g ai/ha): 85 | Plant response rating (scale of 0 to 100), Wheat [4, 16]: 5 | Plant response rating, Wheat ([4]; 62 g ai/ha): 0 | Plant response rating, Wheat ([4]; 125 g ai/ha): 35 | Plant response rating, Wheat ([4]; 250 g ai/ha): 70 | Plant response rating (scale of 0 to 100), Barnyardgrass [5, 16]: 85 | Plant response rating, Barnyardgrass ([5]; 62 g ai/ha): 90 | Plant response rating, Barnyardgrass ([5]; 125 g ai/ha): 90 | Plant response rating, Barnyardgrass ([5]; 250 g ai/ha): 95 | Plant response rating (scale of 0 to 100), Velvetleaf [6, 16]: 0 | Plant response rating, Velvetleaf ([6]; 62 g ai/ha): 35 | Plant response rating, Velvetleaf ([6]; 125 g ai/ha): 25 | Plant response rating, Velvetleaf ([6]; 250 g ai/ha): 45 | Plant response rating (scale of 0 to 100), Nutsedge, Yellow [7, 16]: 0 | Plant response rating, Nutsedge, Yellow ([7]; 62 g ai/ha): 0 | Plant response rating, Nutsedge, Yellow ([7]; 125 g ai/ha): 0 | Plant response rating, Nutsedge, Yellow ([7]; 250 g ai/ha): 0 | Plant response rating (scale of 0 to 100), Crabgrass, Large [8, 16]: 98 | Plant response rating, Crabgrass, Large ([8]; 62 g ai/ha): 100 | Plant response rating, Crabgrass, Large ([8]; 125 g ai/ha): 100 | Plant response rating, Crabgrass, Large ([8]; 250 g ai/ha): 100 | Plant response rating (scale of 0 to 100), Blackgrass [9, 16]: 0 | Plant response rating, Blackgrass ([9]; 62 g ai/ha): 45 | Plant response rating, Blackgrass ([9]; 125 g ai/ha): 30 | Plant response rating, Blackgrass ([9]; 250 g ai/ha): 70 | Plant response rating (scale of 0 to 100), Johnsongrass [10, 16]: 0 | Plant response rating, Johnsongrass ([10]; 62 g ai/ha): 0 | Plant response rating, Johnsongrass ([10]; 125 g ai/ha): 10 | Plant response rating, Johnsongrass ([10]; 250 g ai/ha): 60 | Plant response rating (scale of 0 to 100), Foxtail, Giant [11, 16]: 90 | Plant response rating, Foxtail, Giant ([11]; 62 g ai/ha): 90 | Plant response rating, Foxtail, Giant ([11]; 125 g ai/ha): 90 | Plant response rating, Foxtail, Giant ([11]; 250 g ai/ha): 95 | Plant response rating (scale of 0 to 100), Ragweed [12, 16]: 0 | Plant response rating, Ragweed ([12]; 62 g ai/ha): 25 | Plant response rating, Ragweed ([12]; 125 g ai/ha): 30 | Plant response rating, Ragweed ([12]; 250 g ai/ha): 45 | Plant response rating (scale of 0 to 100), Morningglory [13, 16]: 0 | Plant response rating, Morningglory ([13]; 62 g ai/ha): 0 | Plant response rating, Morningglory ([13]; 125 g ai/ha): 0 | Plant response rating, Morningglory ([13]; 250 g ai/ha): 0 | Plant response rating (scale of 0 to 100), Lambsquarters [14, 16]: 0 | Plant response rating, Lambsquarters ([14]; 62 g ai/ha): 40 | Plant response rating, Lambsquarters ([14]; 125 g ai/ha): 40 | Plant response rating, Lambsquarters ([14]; 250 g ai/ha): 65 | Plant response rating (scale of 0 to 100), Pigweed [15, 16]: 0 | Plant response rating, Pigweed ([15]; 62 g ai/ha): 25 | Plant response rating, Pigweed ([15]; 125 g ai/ha): 60 | Plant response rating, Pigweed ([15]; 250 g ai/ha): 70 | Plant response rating (scale of 0 to 100), Corn (corn (Zea mays); [16]): 0 | Plant response rating, Corn (corn (Zea mays); 62 g ai/ha): 0 | Plant response rating, Corn (corn (Zea mays); 125 g ai/ha): 0 | Plant response rating, Corn (corn (Zea mays); 250 g ai/ha): 10 | Plant response rating (scale of 0 to 100), Soybean (soybean (Glycine max); [16]): 0 | Plant response rating, Soybean (soybean (Glycine max); 62 g ai/ha): 0 | Plant response rating, Soybean (soybean (Glycine max); 125 g ai/ha): 10 | Plant response rating, Soybean (soybean (Glycine max); 250 g ai/ha): 100
